Test results published in patent publication US7271260B2, “3,4-dihydroquinazoline derivatives as T-type calcium channel blockers and method of preparing the same” (Korea Institute of Science and Technology, priority 2004, dated 2007).
Where two headings read alike, the source gives them in different places.

Columns and labels:
[1] = molecular target: T1, α1G T-type calcium channel (Rattus norvegicus, UniProt O54898); experiment: Whole cell patch clamp on HEK 293 cells expressing α1G T-type calcium channel; assay type: cell-based; conditions: for IC50: read-out: IC50, HEK293 cells (α1G)
T1 construct: expressed in transfected cells; Perez-Reyes, University of Virginia
T1 sequence (O54898 whole entry): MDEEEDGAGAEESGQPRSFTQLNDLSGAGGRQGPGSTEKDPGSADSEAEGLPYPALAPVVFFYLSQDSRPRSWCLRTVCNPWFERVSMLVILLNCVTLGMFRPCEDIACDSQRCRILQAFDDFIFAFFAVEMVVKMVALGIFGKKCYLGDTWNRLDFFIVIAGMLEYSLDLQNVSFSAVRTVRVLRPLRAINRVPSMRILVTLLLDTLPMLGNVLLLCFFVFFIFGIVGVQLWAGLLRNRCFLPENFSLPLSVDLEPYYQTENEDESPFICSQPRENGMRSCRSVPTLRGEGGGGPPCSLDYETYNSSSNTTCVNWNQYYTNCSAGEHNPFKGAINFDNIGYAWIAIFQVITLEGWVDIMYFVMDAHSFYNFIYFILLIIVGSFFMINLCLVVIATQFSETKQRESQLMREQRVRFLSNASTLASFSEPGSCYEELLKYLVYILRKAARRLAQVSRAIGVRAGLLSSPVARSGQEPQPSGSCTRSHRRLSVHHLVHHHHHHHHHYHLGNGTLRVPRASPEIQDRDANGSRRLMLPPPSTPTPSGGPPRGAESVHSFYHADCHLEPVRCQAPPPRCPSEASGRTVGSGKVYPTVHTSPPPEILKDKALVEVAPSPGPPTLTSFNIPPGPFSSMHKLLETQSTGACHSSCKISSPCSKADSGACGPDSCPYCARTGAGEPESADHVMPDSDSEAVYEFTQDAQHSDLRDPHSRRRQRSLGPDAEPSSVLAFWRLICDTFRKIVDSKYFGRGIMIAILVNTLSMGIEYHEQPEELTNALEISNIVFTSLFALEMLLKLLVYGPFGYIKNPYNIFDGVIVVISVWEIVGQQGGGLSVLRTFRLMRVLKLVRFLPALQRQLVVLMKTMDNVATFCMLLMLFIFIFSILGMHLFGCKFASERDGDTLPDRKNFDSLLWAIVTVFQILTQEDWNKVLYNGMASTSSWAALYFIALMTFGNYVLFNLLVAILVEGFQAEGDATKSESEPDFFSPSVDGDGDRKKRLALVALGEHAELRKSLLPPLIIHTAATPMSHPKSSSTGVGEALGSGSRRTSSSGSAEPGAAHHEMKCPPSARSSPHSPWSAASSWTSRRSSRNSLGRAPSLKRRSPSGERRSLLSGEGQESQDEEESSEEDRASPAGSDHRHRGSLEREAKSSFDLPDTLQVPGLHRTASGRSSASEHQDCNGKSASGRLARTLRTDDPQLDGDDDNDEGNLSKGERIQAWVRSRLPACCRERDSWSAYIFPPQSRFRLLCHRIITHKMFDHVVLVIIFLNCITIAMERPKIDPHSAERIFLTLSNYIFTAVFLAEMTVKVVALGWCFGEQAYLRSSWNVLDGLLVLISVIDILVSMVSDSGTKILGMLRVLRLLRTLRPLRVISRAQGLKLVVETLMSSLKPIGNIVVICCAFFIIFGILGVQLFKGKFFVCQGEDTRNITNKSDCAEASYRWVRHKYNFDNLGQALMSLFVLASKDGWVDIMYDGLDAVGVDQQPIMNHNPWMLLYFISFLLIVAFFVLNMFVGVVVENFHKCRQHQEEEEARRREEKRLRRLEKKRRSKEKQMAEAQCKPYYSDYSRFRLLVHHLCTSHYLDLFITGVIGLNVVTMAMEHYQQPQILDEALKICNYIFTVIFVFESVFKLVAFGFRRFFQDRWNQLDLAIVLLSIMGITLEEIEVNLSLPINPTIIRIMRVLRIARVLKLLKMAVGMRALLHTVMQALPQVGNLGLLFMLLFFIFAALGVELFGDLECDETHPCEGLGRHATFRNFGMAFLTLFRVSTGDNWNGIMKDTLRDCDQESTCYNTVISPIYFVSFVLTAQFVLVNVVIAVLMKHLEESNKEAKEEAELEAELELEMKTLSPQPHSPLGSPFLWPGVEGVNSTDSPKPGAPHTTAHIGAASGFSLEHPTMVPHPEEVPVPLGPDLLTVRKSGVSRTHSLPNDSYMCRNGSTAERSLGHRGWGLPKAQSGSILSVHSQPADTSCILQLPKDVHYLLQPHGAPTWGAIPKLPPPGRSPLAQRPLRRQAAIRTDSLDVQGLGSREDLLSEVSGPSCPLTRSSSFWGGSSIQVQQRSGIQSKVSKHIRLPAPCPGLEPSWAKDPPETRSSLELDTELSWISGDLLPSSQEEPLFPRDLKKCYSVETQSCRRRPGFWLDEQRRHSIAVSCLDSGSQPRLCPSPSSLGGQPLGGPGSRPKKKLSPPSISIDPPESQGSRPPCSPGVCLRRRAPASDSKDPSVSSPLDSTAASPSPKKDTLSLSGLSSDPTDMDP
Method: HEK 293 cells were cultured in Dulbecco's modified Eagle's medium (DMEM) supplemented with 10% fetal bovine serum (FBS) and 1% penicillin/streptomycin (v/v) in 36.5° C. humidified incubator (95% air-5% CO2). The culture solution was replaced with a fresh medium every 3 to 4 days and the cultured cells were subjected to sub-culture every week. At this time, the culture solution was treated with G-418 (0.5 mg/ml) solution so that only HEK 293 cells expressing α1G T-type calcium channel can grow. The cells used for the T-type calcium channel activity assay were cultured on a cover slip coated with poly-L-lysine (0.5 mg/ml) whenever sub-cultured and their calcium channel activity was recorded 2 to 7 days after the cultivation. The current of the T-type calcium channel at a single cell level was measured according to an electrophysiological whole cell patch clamping method using EPC-9 amplifier (HEKA, German). At this time, a cell exterior solution [140 mM NaCl, 2 mM CaCl2, 10 mM HEPES (pH 7.4)] and a cell interior solution [KCl 130 mM, HEPES 10 mM, EGTA 11 mM, MgATP 5 mM (pH 7.4)] were employed. The inward current caused by the T-type calcium channel activation was measured according to a T-type calcium channel protocol activated at low current. Such current occurs when the cells were converted into a whole-cell recording mode by stabbing a microglass electrode having 3-4 MΩ resistance, which was filled with the cell interior solution into a single cell and depolarized at −30 mV (50 ms duration period) every 10 seconds with fixing membrane potential to −100 mV.
In order to confirm whether the cells and methods used in Test Example 2 are a suitable screening system for selecting T-type calcium channel blockers, the results obtained in Example 2 were compared with those of α1G T-type calcium channel study reported in a public document (Monteil, A. et al., J. Biol. Chem. 275, 6090-6100, 2000). […] Thus, the candidate compounds were subjected to a test for their inhibitory effects on the T-type calcium channel according to the screening system of the present invention, as follows. Each compound was dissolved in 100% dimethylsulfoxide (DMSO) to prepare 10 mM stock solution. The inhibitory effect on the T-type calcium channel current was examined in 10 μM sample solution (containing 0.1% DMSO) prepared by diluting the stock solution by 1000-fold. The cells were treated with each compound at a concentration of 10 μM for 30 to 60 sec with the cell exterior solution.

[2] = molecular target: T2, T-type calcium channel α1H (Cav3.2) (Homo sapiens, UniProt O95180); experiment: Two-electrode voltage clamp on Xenopus unfertilized oocytes expressing α1H T-type calcium channel; assay type: cell-based; conditions: test potential -20 mV from -90 mV; for inhibition at 100 µM: read-out: inhibitory effect (blocking percentage), Xenopus oocyte (α1H) at 100 μM
T2 construct: expressed in transfected cells; host or cells: Xenopus laevis unfertilized oocytes injected with cRNA (pGEM-HEA linearised with AflII, T7 transcription)
T2 sequence (O95180 whole entry): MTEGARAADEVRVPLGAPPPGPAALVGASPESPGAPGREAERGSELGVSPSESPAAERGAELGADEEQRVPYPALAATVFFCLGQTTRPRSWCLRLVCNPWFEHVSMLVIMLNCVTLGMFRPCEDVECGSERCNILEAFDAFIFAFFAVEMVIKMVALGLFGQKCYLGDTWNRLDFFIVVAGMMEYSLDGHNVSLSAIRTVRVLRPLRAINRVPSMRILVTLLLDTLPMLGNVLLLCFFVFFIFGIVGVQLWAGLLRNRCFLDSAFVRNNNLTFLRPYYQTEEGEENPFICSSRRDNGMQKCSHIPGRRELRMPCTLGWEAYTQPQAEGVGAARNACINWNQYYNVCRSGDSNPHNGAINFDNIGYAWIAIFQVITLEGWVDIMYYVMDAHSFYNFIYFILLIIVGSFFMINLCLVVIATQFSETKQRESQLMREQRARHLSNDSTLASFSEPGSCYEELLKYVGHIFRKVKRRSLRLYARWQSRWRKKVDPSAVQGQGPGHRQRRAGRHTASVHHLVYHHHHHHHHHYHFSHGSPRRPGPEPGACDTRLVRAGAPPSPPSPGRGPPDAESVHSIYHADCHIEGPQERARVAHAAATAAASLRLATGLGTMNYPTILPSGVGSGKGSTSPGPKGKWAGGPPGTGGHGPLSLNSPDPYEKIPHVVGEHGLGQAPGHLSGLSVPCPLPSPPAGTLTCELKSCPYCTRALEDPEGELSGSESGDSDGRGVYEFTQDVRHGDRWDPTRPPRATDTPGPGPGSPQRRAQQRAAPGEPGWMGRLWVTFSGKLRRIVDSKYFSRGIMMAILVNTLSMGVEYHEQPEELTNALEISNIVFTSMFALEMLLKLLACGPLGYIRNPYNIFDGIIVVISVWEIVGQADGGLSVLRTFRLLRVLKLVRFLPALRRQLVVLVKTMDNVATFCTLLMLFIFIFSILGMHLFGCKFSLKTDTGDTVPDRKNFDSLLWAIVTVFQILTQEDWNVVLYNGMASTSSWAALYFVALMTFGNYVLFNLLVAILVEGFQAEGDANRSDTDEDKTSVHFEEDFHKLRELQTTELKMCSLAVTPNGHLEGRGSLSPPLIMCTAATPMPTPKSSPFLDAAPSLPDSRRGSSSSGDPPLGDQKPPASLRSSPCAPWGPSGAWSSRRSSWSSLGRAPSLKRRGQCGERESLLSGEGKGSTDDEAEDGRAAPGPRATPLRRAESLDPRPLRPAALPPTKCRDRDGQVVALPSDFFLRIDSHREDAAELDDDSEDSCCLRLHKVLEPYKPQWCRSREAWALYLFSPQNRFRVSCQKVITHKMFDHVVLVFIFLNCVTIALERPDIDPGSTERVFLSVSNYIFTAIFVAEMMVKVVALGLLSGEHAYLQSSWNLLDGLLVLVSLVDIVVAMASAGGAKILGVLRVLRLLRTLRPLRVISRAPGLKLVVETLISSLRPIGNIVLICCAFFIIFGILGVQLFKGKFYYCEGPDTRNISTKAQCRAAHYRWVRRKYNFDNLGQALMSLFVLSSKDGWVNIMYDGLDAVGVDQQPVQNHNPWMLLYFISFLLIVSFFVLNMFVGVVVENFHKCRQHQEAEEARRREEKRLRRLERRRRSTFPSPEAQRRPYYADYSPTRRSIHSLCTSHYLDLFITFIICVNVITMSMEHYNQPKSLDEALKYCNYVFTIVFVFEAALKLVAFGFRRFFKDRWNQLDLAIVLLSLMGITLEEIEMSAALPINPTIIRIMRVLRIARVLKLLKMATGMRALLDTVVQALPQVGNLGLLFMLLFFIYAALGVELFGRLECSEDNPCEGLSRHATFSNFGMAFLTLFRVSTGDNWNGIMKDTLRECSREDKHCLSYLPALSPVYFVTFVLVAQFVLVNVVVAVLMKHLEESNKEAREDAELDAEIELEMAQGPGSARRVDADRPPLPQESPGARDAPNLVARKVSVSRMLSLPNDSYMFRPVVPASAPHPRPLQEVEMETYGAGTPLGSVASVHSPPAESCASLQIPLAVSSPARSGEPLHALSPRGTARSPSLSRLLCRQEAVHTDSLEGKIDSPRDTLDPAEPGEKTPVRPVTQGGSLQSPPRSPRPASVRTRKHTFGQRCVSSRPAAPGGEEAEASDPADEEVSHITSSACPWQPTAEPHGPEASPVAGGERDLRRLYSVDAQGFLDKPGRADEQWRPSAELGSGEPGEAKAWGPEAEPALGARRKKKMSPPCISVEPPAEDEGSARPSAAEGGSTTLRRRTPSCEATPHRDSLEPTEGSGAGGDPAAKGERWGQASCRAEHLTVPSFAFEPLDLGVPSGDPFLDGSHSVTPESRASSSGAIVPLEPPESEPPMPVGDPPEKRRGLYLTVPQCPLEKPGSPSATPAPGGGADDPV
Method: In order to express a gene encoding T-type calcium channel α1H (Cav3.2) (Cribbs, L. L. et al., Circ. Res., 1998, 83, 103-109) in unfertilized Xenopus oocytes, pGEM-HEA was treated with restriction enzyme AflII to obtain a DNA fragment containing 5′-terminal region having the T-type calcium channel cDNA (AF051946). cRNA having a corresponding sequence to that of the fragment was synthesized using T7 RNA polymerase according to the manufacturer's instructions (mMESSAGE mMACHINE kit, Ambion, Austin, U.S.A.). The synthesized cRNA was quantified by measuring the O.D. value with a spectrophotometer. At this time, unfertilized oocytes were prepared from female Xenopus laevis (Xenopus I, U.S.A.) according to the following method. After the frog's abdomen was incised by about 1 cm, three to four lobes were detached therefrom with scissors and separated into small pieces to which several oocytes were attached. The small pieces were hydrolyzed in OR solution (82.5 mM NaCl, 2.5 mM KCl, 1 mM MgCl2, 5 mM HEPES, pH 7.6) and supplemented with collagenase type IA (Sigma, U.S.A.) to remove defolliculation. After selecting healthy oocytes with a dissecting microscope, they were soaked in SOS solution (100 mM NaCl, 2 mM KCl, 1.8 mM CaCl2, 1 mM MgCl2, 5 mM HEPES, 2.5 mM pyruvate, […] gentamicin, pH 7.6) for 3 to 4 hours to revitalize them. 2 to 5 ng of cRNA was injected into each oocyte using Nano-injector. The oocytes were subjected to a test in order to examine the electrical properties of the channel expressed therefrom 4 to 5 days after the injection while being maintained at 18° C.
The current of the calcium channel expressed from the Xenopus unfertilized oocytes was measured according to a two-electrode voltage clamping method. The current was measured in 10 mM Ba^2+ solution (10 mM Ba(OH)2, 90 mM NaOH, 1 mM KCl, 0.1 mM EDTA, 5 mM HEPES, pH was adjusted to 7.4 with methanesulfonic acid). At this time, the voltage clamp and current measurement were regulated with an amplifier for unfertilized oocytes (Model OC-725C, Warner Instrument Corp., U.S.A.), and analog signals were converted into digital signals using Digidata 2000A (Analog-Digital converter, Axon Instrument). The acquisition, storage and analysis of all data were recorded in Pentium IV computer via pCLAMP8. The data were mainly collected at 5 KHz and filtered at 1 KHz (Model 902 filter; Frequency devices located at Harverhill, Mass., U.S.A.). The T-type current was generated by imposing test electric potential of −20 mV every 15 seconds on the unfertilized oocytes, the potential of which was fixed at −90 mV. A blocking percentage was calculated by comparing the […] before and after the drug treatment.

[3] = HEK293, 10 μM, HEK 293 cells expressing α1G, 30 to 60 sec treatment, read-out: inhibitory effect on peak current, HEK293 cells (α1G) at 10 μM
[4] = HEK293, read-out: inhibitory effect on peak current, HEK293 cells (α1G) at 10 μM

SMILES: O=C(CC1c2ccccc2N=C(N2CCOCC2)N1c1ccccc1)NCc1ccccc1 (stereo not shown) [KYS05026, 4-(N-benzylacetamido)-3-phenyl-2-(morpholin-1-yl)-3,4-dihydroquinazoline]
- inhibition at 10 µM [1, 3]: 40.5%
- IC50 ([1]; HEK 293 cells expressing α1G): 21.6 µM
- inhibition at 100 µM [2]: 63.8%

SMILES: O=C(CC1c2ccccc2N=C(N2CCCCC2)N1c1ccccc1)NCc1ccc([N+](=O)[O-])cc1 (stereo not shown) [KYS05034, 4-[N-(4-nitrobenzyl)acetamido]-3-phenyl-2-(piperidine-1-yl)-3,4-dihydroquinazoline]
- inhibition at 10 µM [1, 4]: 92.3%
- IC50 ([1]; HEK 293 cells expressing α1G): 2.5 µM
- inhibition at 100 µM [2]: 91.9%

SMILES: COCC(=O)O[C@]1(CCN(C)CCCc2nc3ccccc3[nH]2)CCc2cc(F)ccc2[C@@H]1C(C)C [Mibefradil, reference compound]
- inhibitory effect (blocking percentage), Xenopus oocyte (α1H) at 100 μM [2]: 86.0%
- inhibition at 100 µM [2]: 86%

SMILES: CN1CCN(C2=Nc3ccccc3C(CC(=O)OCc3ccccc3)N2c2ccccc2)CC1 (stereo not shown) [Compound 05029]
- inhibition at 100 µM [2]: 32.7%

SMILES: O=C(CC1c2ccccc2N=C(c2ccccc2)N1c1ccccc1)OCc1ccccc1 (stereo not shown) [Compound 05032]
- inhibition at 100 µM [2]: 14.2%

SMILES: CN1CCN(C2=Nc3ccccc3C(CC(=O)NCc3ccccc3)N2c2ccccc2)CC1 (stereo not shown) [KYS05028, 4-(N-benzylacetamido)-3-phenyl-2-(4-methylpiperazinyl)-3,4-dihydroquinazoline]
- inhibition at 10 µM [1, 4]: 29%
- IC50 ([1]; HEK 293 cells expressing α1G): 35.8 µM
- inhibition at 100 µM [2]: 70.3%

SMILES: O=C(CC1c2ccccc2N=C(N2CCOCC2)N1c1ccccc1)OCc1ccccc1 (stereo not shown) [Compound 05027]
- inhibition at 100 µM [2]: 20.9%

SMILES: O=C(CC1c2ccccc2N=C(c2ccccc2)N1c1ccccc1)NCc1ccccc1 (stereo not shown) [Compound 05031]
- inhibition at 100 µM [2]: 14.8%

SMILES: Nc1ccc(CNC(=O)CC2c3ccccc3N=C(N3CCCCC3)N2c2ccccc2)cc1 (stereo not shown) [Compound 05040]
- inhibition at 10 µM [1, 3]: 43.5%
- IC50 ([1]; HEK 293 cells expressing α1G): 14.4 µM
- inhibition at 100 µM [2]: 66.8%

SMILES: CCO/C(O)=C(\C#N)C1=Nc2ccccc2C(CC(=O)OC)N1c1ccccc1 (stereo not shown) [Compound 05033]
- inhibition at 100 µM [2]: 38.9%
